This is an account of results in ChEMBL document CHEMBL5653615 (J Biol Chem, 2013).

The target of assay [1] is SRSF protein kinase 2 (Homo sapiens) (UniProt P78362). Description: Inhibition of human SRPK2 at 18.6 nM by HotSpot assay relative to control.
Assay [2] has as its target T1, Serine/threonine-protein kinase STK11 (Homo sapiens) (UniProt Q15831).
T1 sequence (whole entry): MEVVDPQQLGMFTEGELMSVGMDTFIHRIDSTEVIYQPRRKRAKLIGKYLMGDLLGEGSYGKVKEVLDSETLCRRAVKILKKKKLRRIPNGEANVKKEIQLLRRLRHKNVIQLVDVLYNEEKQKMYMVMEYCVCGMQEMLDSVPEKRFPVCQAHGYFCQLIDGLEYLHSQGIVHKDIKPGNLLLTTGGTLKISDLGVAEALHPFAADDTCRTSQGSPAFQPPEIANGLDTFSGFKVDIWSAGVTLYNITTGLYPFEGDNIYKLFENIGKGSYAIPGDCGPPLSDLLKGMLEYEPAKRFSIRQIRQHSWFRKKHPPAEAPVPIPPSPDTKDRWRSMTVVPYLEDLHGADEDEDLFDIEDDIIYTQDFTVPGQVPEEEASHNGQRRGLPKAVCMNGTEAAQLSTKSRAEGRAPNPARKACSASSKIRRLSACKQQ
Nature of the assay: Inhibition of human LKB1 at 18.6 nM by HotSpot assay relative to control.

The target in assay [3] is Vascular endothelial growth factor receptor 3 (Homo sapiens) (UniProt P35916). Description: Inhibition of human FLT4 at 18.6 nM by HotSpot assay relative to control.
Sequence of Vascular endothelial growth factor receptor 3 (Homo sapiens) (P35916 whole entry): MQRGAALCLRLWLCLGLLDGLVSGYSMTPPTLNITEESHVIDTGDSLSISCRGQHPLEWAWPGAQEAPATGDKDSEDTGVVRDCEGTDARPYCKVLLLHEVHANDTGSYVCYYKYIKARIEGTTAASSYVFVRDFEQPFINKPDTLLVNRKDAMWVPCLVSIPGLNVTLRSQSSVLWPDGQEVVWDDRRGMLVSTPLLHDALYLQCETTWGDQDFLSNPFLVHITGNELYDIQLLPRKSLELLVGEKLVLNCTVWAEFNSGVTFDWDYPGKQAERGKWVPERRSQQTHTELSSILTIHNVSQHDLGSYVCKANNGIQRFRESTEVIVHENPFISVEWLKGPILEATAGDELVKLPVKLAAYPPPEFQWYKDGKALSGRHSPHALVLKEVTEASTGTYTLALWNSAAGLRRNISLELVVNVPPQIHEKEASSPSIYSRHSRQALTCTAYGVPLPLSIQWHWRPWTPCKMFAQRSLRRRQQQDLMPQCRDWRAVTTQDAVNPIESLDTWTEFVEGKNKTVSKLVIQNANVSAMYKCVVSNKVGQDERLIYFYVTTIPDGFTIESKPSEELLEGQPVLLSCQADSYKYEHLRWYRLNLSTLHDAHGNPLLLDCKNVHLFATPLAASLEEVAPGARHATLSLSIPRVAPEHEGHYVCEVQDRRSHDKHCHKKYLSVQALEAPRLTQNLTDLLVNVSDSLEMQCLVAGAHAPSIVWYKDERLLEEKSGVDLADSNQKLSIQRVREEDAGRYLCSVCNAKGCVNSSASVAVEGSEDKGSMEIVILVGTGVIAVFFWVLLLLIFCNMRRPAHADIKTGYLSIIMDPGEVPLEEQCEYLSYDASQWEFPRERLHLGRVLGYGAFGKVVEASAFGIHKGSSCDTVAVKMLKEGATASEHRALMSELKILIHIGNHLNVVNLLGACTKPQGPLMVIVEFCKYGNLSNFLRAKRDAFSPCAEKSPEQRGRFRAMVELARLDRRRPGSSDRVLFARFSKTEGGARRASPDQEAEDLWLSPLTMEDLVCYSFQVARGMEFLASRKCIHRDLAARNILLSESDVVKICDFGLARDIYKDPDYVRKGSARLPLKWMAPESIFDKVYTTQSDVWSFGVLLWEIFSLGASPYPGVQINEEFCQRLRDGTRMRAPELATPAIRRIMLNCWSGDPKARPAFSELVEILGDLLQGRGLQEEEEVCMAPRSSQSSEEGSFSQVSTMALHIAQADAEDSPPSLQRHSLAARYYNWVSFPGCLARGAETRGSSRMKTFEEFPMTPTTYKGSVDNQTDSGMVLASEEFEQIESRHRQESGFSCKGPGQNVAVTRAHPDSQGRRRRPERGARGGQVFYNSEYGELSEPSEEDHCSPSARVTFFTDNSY
In assay [4] the target is Protein kinase C beta type (Homo sapiens) (UniProt P05771). Nature of the assay: Inhibition of human PKCb2 at 18.6 nM by HotSpot assay relative to control.
The target in assay [5] is T2, Rhodopsin kinase GRK7 (Homo sapiens) (UniProt Q8WTQ7).
T2 sequence (whole entry): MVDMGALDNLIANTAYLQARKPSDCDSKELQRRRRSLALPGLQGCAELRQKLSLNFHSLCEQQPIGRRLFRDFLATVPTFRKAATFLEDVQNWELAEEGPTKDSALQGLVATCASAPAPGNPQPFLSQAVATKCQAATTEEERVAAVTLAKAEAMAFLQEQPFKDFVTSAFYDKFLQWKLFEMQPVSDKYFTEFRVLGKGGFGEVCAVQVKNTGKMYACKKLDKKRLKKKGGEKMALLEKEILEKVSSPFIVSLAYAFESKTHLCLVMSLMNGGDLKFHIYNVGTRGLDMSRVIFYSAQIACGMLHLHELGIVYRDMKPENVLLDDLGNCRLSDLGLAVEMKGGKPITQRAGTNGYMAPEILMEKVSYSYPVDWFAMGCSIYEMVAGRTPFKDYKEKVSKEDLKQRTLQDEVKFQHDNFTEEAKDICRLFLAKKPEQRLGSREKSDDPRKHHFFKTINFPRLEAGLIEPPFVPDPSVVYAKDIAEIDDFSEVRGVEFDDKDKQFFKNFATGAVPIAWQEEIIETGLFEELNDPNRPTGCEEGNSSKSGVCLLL
Nature of the assay: Inhibition of human GRK7 at 18.6 nM by HotSpot assay relative to control.

In assay [6] the target is Cyclin-dependent kinase 7/ cyclin H (Homo sapiens) (UniProt P51946+P50613). Description: Inhibition of human CDK7/cyclin H at 18.6 nM by HotSpot assay relative to control. Type of assay: protein-complex assay.
In assay [7] the target is Calcium/calmodulin-dependent protein kinase kinase 1 (Homo sapiens) (UniProt Q8N5S9). Nature of the assay: Inhibition of human CAMKK1 at 18.6 nM by HotSpot assay relative to control.
Sequence of Calcium/calmodulin-dependent protein kinase kinase 1 (Homo sapiens) (Q8N5S9 whole entry, looked up, canonical isoform): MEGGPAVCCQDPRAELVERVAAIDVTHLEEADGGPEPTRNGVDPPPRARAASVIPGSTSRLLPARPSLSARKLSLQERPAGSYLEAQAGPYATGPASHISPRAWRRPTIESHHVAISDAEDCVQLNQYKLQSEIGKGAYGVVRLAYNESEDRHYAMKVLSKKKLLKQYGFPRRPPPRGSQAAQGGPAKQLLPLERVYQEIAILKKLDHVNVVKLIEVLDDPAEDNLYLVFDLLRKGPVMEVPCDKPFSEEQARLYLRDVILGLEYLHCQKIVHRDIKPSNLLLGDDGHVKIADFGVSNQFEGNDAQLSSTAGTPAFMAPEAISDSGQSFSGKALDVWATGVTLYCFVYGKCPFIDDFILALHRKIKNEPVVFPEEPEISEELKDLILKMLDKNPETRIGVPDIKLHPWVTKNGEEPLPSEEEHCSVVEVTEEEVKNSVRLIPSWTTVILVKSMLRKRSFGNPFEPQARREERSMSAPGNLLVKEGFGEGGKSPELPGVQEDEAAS
The target of assay [8] is Casein kinase I isoform gamma-1 (Homo sapiens) (UniProt Q9HCP0). Description: Inhibition of human CK1g1 at 18.6 nM by HotSpot assay relative to control.
Sequence of Casein kinase I isoform gamma-1 (Homo sapiens) (Q9HCP0 whole entry, looked up, canonical isoform): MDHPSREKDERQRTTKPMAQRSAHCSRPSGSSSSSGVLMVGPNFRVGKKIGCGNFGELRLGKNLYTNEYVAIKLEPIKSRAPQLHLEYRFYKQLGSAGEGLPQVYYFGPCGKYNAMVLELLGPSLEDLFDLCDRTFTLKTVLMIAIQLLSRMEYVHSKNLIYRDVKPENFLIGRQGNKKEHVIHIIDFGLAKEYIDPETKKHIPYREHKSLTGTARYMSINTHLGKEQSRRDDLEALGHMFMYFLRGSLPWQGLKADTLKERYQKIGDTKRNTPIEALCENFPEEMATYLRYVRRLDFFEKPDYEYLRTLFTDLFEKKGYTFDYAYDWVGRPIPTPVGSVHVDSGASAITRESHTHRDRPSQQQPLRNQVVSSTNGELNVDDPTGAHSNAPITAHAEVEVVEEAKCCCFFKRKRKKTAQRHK
For assay [9], the target named is Dual specificity tyrosine-phosphorylation-regulated kinase 1A (Homo sapiens) (UniProt Q13627). Description: Inhibition of human DYRK1 at 18.6 nM by HotSpot assay relative to control.
For assay [10], the target named is Tyrosine-protein kinase ABL1 (Homo sapiens) (UniProt P00519). Description: Inhibition of human ABL1 at 1.82 nM by HotSpot assay relative to control.
For assay [11], the target named is Serine/threonine-protein kinase PLK1 (Homo sapiens) (UniProt P53350). Nature of the assay: Inhibition of human PLK1 at 1.82 nM by HotSpot assay relative to control.
The target of assay [12] is MAP/microtubule affinity-regulating kinase 3 (Homo sapiens) (UniProt P27448). Description: Inhibition of human MARK3 at 1.82 nM by HotSpot assay relative to control.
Sequence of MAP/microtubule affinity-regulating kinase 3 (Homo sapiens) (P27448 whole entry, looked up): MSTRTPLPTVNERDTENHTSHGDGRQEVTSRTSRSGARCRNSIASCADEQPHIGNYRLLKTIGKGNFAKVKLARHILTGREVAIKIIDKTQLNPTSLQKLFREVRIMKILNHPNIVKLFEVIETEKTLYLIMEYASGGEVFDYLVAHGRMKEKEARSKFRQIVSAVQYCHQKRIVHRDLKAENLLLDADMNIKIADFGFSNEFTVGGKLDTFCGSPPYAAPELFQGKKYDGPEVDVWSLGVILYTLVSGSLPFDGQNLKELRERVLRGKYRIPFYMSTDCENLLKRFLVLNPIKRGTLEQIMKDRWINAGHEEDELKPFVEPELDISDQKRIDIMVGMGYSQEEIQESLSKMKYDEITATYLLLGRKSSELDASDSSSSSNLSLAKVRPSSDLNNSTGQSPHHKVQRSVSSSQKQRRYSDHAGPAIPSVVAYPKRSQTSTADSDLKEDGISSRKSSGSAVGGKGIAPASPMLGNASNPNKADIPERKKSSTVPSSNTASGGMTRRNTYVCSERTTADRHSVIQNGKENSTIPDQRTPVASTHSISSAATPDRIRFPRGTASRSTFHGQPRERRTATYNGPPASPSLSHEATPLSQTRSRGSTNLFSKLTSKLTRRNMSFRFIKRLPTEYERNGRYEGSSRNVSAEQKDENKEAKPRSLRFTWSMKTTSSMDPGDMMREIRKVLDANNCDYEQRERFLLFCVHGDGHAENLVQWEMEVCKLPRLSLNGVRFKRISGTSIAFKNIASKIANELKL
The target in assay [13] is T3, Mitogen-activated protein kinase 13 (Homo sapiens) (UniProt O15264).
T3 sequence (whole entry): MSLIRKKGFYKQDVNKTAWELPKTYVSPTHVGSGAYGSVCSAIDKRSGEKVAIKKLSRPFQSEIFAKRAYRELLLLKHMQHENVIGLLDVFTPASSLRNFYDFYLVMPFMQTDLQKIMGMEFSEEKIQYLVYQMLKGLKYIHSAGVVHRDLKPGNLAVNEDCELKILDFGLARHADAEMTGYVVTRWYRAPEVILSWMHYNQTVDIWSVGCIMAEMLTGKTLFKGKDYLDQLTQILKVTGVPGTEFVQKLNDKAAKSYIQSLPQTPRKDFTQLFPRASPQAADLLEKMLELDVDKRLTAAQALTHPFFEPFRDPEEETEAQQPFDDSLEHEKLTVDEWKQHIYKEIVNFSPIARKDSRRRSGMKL
Description: Inhibition of human MAPK13 at 1.82 nM by HotSpot assay relative to control.

Assay [14] concerns the target Serine/threonine-protein kinase MARK1 (Homo sapiens) (UniProt Q9P0L2). Description: Inhibition of human MARK1 at 1.82 nM by HotSpot assay relative to control.
Assay [15] concerns the target T4, Megakaryocyte-associated tyrosine-protein kinase (Homo sapiens) (UniProt P42679).
T4 sequence (whole entry): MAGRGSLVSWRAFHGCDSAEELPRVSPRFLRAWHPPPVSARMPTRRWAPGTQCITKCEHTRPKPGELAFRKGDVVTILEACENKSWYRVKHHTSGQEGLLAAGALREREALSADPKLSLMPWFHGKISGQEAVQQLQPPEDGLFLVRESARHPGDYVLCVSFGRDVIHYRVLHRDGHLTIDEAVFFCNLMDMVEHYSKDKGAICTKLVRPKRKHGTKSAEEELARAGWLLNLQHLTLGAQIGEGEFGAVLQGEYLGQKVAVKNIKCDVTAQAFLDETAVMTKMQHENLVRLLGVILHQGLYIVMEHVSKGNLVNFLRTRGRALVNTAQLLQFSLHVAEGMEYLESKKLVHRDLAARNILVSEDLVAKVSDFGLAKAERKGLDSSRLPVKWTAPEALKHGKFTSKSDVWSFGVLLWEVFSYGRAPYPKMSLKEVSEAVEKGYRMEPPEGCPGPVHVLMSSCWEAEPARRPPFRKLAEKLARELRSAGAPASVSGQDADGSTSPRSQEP
Nature of the assay: Inhibition of human CTK at 1.82 nM by HotSpot assay relative to control.

Sequence of Serine/threonine-protein kinase MARK1 (Homo sapiens) (Q9P0L2 whole entry, looked up): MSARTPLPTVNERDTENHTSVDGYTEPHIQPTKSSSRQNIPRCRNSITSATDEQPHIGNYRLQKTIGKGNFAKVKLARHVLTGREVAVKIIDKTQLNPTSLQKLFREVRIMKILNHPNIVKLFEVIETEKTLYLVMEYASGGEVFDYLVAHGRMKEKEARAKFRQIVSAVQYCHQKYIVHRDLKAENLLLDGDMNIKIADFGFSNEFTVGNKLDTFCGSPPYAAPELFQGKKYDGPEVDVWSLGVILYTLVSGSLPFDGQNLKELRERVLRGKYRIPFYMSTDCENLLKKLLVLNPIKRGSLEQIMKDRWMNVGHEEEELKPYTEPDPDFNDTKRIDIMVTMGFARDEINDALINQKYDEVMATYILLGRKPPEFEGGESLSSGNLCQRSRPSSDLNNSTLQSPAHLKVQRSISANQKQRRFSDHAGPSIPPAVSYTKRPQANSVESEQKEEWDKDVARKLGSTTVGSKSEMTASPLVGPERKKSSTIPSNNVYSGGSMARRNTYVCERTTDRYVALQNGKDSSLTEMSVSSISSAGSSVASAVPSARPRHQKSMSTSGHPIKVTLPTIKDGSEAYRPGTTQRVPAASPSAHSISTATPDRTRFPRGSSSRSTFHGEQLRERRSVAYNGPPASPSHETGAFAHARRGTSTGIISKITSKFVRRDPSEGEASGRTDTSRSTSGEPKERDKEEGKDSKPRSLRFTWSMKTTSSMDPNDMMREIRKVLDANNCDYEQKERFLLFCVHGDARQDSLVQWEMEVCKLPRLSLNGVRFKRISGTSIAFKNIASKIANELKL
Sequence of SRSF protein kinase 2 (Homo sapiens) (P78362 whole entry, looked up): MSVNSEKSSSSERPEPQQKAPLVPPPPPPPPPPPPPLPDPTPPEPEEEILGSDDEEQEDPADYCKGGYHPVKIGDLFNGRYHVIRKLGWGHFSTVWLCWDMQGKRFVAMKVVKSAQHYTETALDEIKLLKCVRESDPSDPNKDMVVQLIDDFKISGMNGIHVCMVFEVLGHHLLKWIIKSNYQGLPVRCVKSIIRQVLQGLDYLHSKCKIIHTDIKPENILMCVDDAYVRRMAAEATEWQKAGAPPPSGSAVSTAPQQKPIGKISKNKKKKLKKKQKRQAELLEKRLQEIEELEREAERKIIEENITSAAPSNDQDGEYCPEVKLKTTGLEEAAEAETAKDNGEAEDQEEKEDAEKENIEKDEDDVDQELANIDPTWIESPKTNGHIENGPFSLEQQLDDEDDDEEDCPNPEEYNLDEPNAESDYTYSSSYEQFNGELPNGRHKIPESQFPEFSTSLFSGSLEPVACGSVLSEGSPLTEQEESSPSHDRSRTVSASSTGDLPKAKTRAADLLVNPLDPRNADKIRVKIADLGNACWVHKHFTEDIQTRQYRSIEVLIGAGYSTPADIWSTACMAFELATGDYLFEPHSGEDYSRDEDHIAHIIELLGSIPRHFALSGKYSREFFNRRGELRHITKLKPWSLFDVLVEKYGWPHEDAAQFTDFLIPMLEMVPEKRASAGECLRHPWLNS

For the compound `C[C@]1(O)C[C@@H](c2nc(-c3ccc4ccc(-c5ccccc5)nc4c3)c3c(N)nccn32)C1`, the inhibition (usually the change of the read-out against control, counted positive when it falls) in assay [1] was -1.64%; in assay [2], 2.28%; in assay [3], -2.25%; in [4], -7.92%; in [5], 0.1%; in assay [6], -4.42%. Moreover, the results for the inhibition in [7], in assay [8] and in assay [9] were 5.54%, -0.6% and -1.6%, respectively.
Regarding `C[C@@]1(C(=O)Nc2ccc(F)nc2)CCCN1c1nc(Nc2cc(C3CC3)n[nH]2)c2cccn2n1`, the inhibition in assay [10] is 3.21%; in [11] it was -4.97%; in [12], 1.57%; in assay [13], -4.13%; in [14] it was -3.41%; in assay [15], -1.93%.
